From PMC12621043, “Un-LOK-ing a New Approach for Conformational Selective Targeting of STK10 (LOK)” (ACS Medicinal Chemistry Letters, 2025)

What follows are molecules tested against T1, BMP2KA (Homo sapiens, UniProt Q9NSY1) (assay: DSF Tm panel). Settings: 10 μM compound.
T1 construct: purchased in-house DSF kinase panel (SGC-style construct names; the trailing letter is the construct ID)
Type: binding

T1 sequence (Q9NSY1 38-345): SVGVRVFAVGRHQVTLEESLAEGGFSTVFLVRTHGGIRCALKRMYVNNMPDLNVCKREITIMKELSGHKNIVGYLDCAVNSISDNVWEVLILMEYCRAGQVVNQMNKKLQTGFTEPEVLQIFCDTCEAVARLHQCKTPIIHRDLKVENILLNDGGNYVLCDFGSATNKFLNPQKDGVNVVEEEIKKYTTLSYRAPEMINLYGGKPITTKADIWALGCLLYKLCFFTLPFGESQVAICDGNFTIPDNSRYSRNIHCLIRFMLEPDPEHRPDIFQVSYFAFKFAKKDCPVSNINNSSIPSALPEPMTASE

Row | SMILES | ΔTm at 10 µM [°C]
1 | O=C(NCc1cccc(Cl)c1)Nc1ccc2cc1OCCOCCNc1ccn3ncc-2c3n1 [compound 18] | 8.7
2 | O=C(NCc1ccc(Cl)cc1)Nc1ccc2cc1OCCOCCNc1ccn3ncc-2c3n1 [compound 19] | 9.8
3 | O=C(NCc1ccc(Cl)cc1Cl)Nc1ccc2cc1OCCOCCNc1ccn3ncc-2c3n1 [compound 20] | 6.7

What follows are molecules tested against T2, AAK1 (AAK1A) (Homo sapiens, UniProt Q2M2I8) (assay: DSF Tm panel). Settings: 10 μM compound.
T2 construct: purchased in-house DSF kinase panel (SGC-style construct names; the trailing letter is the construct ID)
Type: binding

T2 sequence (Q2M2I8 27-365): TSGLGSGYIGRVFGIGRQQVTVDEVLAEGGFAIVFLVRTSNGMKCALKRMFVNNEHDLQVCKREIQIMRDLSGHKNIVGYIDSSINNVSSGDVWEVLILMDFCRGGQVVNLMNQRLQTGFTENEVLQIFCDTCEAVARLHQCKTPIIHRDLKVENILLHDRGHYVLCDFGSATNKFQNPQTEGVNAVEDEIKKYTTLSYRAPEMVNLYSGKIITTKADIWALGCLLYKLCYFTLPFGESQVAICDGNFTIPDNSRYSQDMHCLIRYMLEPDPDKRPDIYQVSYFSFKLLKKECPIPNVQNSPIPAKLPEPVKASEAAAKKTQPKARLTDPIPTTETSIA

Row | SMILES | ΔTm at 10 µM [°C]
4 | O=C(NCc1cccc(Cl)c1)Nc1ccc2cc1OCCOCCNc1ccn3ncc-2c3n1 [compound 18] | 5.5
5 | O=C(NCc1ccc(Cl)cc1)Nc1ccc2cc1OCCOCCNc1ccn3ncc-2c3n1 [compound 19] | 7.1
6 | O=C(NCc1ccc(Cl)cc1Cl)Nc1ccc2cc1OCCOCCNc1ccn3ncc-2c3n1 [compound 20] | 6.3

What follows are molecules tested against T3, STK3 (STK3A) (Homo sapiens, UniProt Q13188) (assay: DSF Tm panel). Settings: 10 μM compound.
T3 construct: purchased in-house DSF kinase panel (SGC-style construct names; the trailing letter is the construct ID)
T3 sequence (Q13188 16-313): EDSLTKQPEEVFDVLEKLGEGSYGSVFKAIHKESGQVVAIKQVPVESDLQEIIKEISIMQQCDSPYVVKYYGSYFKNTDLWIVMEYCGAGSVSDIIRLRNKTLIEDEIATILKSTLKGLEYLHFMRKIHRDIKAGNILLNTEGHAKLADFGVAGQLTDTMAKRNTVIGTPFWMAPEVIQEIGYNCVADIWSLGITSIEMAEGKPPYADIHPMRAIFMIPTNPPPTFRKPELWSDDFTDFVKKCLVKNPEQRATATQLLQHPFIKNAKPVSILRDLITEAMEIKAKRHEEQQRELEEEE
Type: binding

Row | SMILES | ΔTm at 10 µM [°C]
7 | O=C(NCc1cccc(Cl)c1)Nc1ccc2cc1OCCOCCNc1ccn3ncc-2c3n1 [compound 18] | 8
8 | O=C(NCc1ccc(Cl)cc1)Nc1ccc2cc1OCCOCCNc1ccn3ncc-2c3n1 [compound 19] | 6.7
9 | O=C(NCc1ccc(Cl)cc1Cl)Nc1ccc2cc1OCCOCCNc1ccn3ncc-2c3n1 [compound 20] | 8

These molecules were tested against T4, STK4 (STK4A) (Homo sapiens, UniProt Q13043) (assay: DSF Tm panel). Settings: 10 μM compound.
T4 construct: purchased in-house DSF kinase panel (SGC-style construct names; the trailing letter is the construct ID)
T4 sequence (Q13043 1-311): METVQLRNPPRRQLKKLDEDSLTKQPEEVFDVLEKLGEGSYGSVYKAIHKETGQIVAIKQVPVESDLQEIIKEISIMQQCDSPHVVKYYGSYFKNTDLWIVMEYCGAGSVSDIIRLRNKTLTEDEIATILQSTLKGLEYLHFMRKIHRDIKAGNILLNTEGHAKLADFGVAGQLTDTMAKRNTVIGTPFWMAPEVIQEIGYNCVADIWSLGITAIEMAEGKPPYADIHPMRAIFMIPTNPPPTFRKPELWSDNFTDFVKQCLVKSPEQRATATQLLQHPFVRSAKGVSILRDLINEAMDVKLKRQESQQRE
Type: binding

Row | SMILES | ΔTm at 10 µM [°C]
10 | O=C(NCc1cccc(Cl)c1)Nc1ccc2cc1OCCOCCNc1ccn3ncc-2c3n1 [compound 18] | 4.5
11 | O=C(NCc1ccc(Cl)cc1)Nc1ccc2cc1OCCOCCNc1ccn3ncc-2c3n1 [compound 19] | 5.5
12 | O=C(NCc1ccc(Cl)cc1Cl)Nc1ccc2cc1OCCOCCNc1ccn3ncc-2c3n1 [compound 20] | 3.6

The molecules below were run against T5, DYRK1AA (Homo sapiens, UniProt Q13627) (assay: DSF Tm panel). Settings: 10 μM compound.
T5 construct: purchased in-house DSF kinase panel (SGC-style construct names; the trailing letter is the construct ID)
Type: binding

Row | SMILES | ΔTm at 10 µM [°C]
13 | O=C(NCc1cccc(Cl)c1)Nc1ccc2cc1OCCOCCNc1ccn3ncc-2c3n1 [compound 18] | 1.1
14 | O=C(NCc1ccc(Cl)cc1)Nc1ccc2cc1OCCOCCNc1ccn3ncc-2c3n1 [compound 19] | -1
15 | O=C(NCc1ccc(Cl)cc1Cl)Nc1ccc2cc1OCCOCCNc1ccn3ncc-2c3n1 [compound 20] | 0.6

The molecules below were run against T6, MELKA (Homo sapiens, UniProt Q14680) (assay: DSF Tm panel). Settings: 10 μM compound.
T6 construct: purchased in-house DSF kinase panel (SGC-style construct names; the trailing letter is the construct ID)
Type: binding

T6 sequence (Q14680 1-340): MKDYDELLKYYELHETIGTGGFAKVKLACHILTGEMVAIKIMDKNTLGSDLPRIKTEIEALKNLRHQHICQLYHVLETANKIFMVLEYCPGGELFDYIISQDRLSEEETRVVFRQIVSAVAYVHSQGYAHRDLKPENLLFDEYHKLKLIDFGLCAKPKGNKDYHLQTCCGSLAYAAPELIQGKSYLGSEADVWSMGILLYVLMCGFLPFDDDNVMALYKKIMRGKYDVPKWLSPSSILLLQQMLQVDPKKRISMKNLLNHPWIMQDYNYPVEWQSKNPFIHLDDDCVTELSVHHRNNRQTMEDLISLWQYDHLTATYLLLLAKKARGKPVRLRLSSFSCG

Row | SMILES | ΔTm at 10 µM [°C]
16 | O=C(NCc1cccc(Cl)c1)Nc1ccc2cc1OCCOCCNc1ccn3ncc-2c3n1 [compound 18] | 1.5
17 | O=C(NCc1ccc(Cl)cc1)Nc1ccc2cc1OCCOCCNc1ccn3ncc-2c3n1 [compound 19] | 1.5
18 | O=C(NCc1ccc(Cl)cc1Cl)Nc1ccc2cc1OCCOCCNc1ccn3ncc-2c3n1 [compound 20] | 0.9

These molecules were tested on RPS6KA1A (assay: DSF Tm panel). Settings: 10 μM compound.
Type: binding

Row | SMILES | ΔTm RPS6KA1A
19 | O=C(NCc1cccc(Cl)c1)Nc1ccc2cc1OCCOCCNc1ccn3ncc-2c3n1 [compound 18] | 0,7 °C
20 | O=C(NCc1ccc(Cl)cc1)Nc1ccc2cc1OCCOCCNc1ccn3ncc-2c3n1 [compound 19] | 0,4 °C
21 | O=C(NCc1ccc(Cl)cc1Cl)Nc1ccc2cc1OCCOCCNc1ccn3ncc-2c3n1 [compound 20] | 0,9 °C

What follows are molecules tested against T7, EPHA2 (EPHA2A) (Homo sapiens, UniProt P29317) (assay: DSF Tm panel). Settings: 10 μM compound.
T7 construct: purchased in-house DSF kinase panel (SGC-style construct names; the trailing letter is the construct ID)
T7 sequence (P29317 596-900): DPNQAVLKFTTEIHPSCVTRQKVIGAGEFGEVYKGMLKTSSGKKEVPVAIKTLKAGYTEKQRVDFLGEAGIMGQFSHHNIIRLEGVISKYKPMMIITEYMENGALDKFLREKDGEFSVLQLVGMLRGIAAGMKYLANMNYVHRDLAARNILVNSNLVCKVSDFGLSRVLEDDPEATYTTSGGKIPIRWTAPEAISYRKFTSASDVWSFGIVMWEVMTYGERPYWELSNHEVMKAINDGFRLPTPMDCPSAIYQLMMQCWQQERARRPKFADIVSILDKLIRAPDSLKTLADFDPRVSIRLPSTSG
Type: binding

Row | SMILES | ΔTm at 10 µM [°C]
22 | O=C(NCc1cccc(Cl)c1)Nc1ccc2cc1OCCOCCNc1ccn3ncc-2c3n1 [compound 18] | 0.6
23 | O=C(NCc1ccc(Cl)cc1)Nc1ccc2cc1OCCOCCNc1ccn3ncc-2c3n1 [compound 19] | 0.2
24 | O=C(NCc1ccc(Cl)cc1Cl)Nc1ccc2cc1OCCOCCNc1ccn3ncc-2c3n1 [compound 20] | 0.4

Each molecule was assayed against T8, NEK1A (Homo sapiens, UniProt Q96PY6) (assay: DSF Tm panel). Settings: 10 μM compound.
T8 construct: purchased in-house DSF kinase panel (SGC-style construct names; the trailing letter is the construct ID)
T8 sequence (Q96PY6 1-328): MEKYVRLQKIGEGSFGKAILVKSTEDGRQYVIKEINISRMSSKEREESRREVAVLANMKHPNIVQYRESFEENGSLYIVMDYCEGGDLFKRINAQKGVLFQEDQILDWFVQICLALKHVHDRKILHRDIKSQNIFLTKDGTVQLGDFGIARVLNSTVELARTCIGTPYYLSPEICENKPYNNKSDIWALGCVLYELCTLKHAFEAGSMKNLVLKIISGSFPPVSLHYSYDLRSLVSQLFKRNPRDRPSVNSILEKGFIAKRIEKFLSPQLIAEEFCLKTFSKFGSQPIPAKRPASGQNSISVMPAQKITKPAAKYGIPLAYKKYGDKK
Type: binding

Row | SMILES | ΔTm at 10 µM [°C]
25 | O=C(NCc1cccc(Cl)c1)Nc1ccc2cc1OCCOCCNc1ccn3ncc-2c3n1 [compound 18] | 0.2
26 | O=C(NCc1ccc(Cl)cc1)Nc1ccc2cc1OCCOCCNc1ccn3ncc-2c3n1 [compound 19] | -0.2
27 | O=C(NCc1ccc(Cl)cc1Cl)Nc1ccc2cc1OCCOCCNc1ccn3ncc-2c3n1 [compound 20] | 0.7

These molecules were tested against T9, MAPK13A (Homo sapiens, UniProt O15264) (assay: DSF Tm panel). Settings: 10 μM compound.
T9 construct: purchased in-house DSF kinase panel (SGC-style construct names; the trailing letter is the construct ID)
T9 sequence (O15264 1-365): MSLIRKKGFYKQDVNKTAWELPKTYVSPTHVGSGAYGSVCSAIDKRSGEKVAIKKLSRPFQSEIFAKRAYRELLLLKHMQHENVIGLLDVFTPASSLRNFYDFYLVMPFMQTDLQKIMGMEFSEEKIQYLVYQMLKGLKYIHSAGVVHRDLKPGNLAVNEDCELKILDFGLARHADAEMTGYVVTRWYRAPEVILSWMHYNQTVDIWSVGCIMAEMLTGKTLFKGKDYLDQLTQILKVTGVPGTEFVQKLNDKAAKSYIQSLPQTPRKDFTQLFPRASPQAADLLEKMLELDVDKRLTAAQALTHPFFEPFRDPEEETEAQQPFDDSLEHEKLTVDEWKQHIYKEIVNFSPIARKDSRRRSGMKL
Type: binding

Row | SMILES | ΔTm at 10 µM [°C]
28 | O=C(NCc1cccc(Cl)c1)Nc1ccc2cc1OCCOCCNc1ccn3ncc-2c3n1 [compound 18] | 0.7
29 | O=C(NCc1ccc(Cl)cc1)Nc1ccc2cc1OCCOCCNc1ccn3ncc-2c3n1 [compound 19] | 0.6
30 | O=C(NCc1ccc(Cl)cc1Cl)Nc1ccc2cc1OCCOCCNc1ccn3ncc-2c3n1 [compound 20] | 0.4

The molecules below were run against T10, CDKL1A (Homo sapiens, UniProt Q00532) (assay: DSF Tm panel). Settings: 10 μM compound.
T10 construct: purchased in-house DSF kinase panel (SGC-style construct names; the trailing letter is the construct ID)
Type: binding

T10 sequence (Q00532 1-303): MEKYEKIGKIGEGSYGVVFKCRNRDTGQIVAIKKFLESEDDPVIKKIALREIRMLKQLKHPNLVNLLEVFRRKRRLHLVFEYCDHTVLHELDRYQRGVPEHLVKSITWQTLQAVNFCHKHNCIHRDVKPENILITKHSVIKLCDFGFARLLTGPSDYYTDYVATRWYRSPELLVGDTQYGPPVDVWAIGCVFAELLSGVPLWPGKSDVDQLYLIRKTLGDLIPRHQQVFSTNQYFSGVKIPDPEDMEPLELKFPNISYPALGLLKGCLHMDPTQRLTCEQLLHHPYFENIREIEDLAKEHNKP

Row | SMILES | ΔTm at 10 µM [°C]
31 | O=C(NCc1cccc(Cl)c1)Nc1ccc2cc1OCCOCCNc1ccn3ncc-2c3n1 [compound 18] | -0.1
32 | O=C(NCc1ccc(Cl)cc1)Nc1ccc2cc1OCCOCCNc1ccn3ncc-2c3n1 [compound 19] | 0.3
33 | O=C(NCc1ccc(Cl)cc1Cl)Nc1ccc2cc1OCCOCCNc1ccn3ncc-2c3n1 [compound 20] | 0.9

Each molecule was assayed on CDC42BPAA (assay: DSF Tm panel). Settings: 10 μM compound.
Type: binding

Row | SMILES | ΔTm CDC42BPAA
34 | O=C(NCc1cccc(Cl)c1)Nc1ccc2cc1OCCOCCNc1ccn3ncc-2c3n1 [compound 18] | 0,0 °C
35 | O=C(NCc1ccc(Cl)cc1)Nc1ccc2cc1OCCOCCNc1ccn3ncc-2c3n1 [compound 19] | 0,0 °C
36 | O=C(NCc1ccc(Cl)cc1Cl)Nc1ccc2cc1OCCOCCNc1ccn3ncc-2c3n1 [compound 20] | 0,7 °C

These molecules were tested against T11, VRK1A (Homo sapiens, UniProt Q99986) (assay: DSF Tm panel). Settings: 10 μM compound.
T11 construct: purchased in-house DSF kinase panel (SGC-style construct names; the trailing letter is the construct ID)
T11 sequence (Q99986 1-396): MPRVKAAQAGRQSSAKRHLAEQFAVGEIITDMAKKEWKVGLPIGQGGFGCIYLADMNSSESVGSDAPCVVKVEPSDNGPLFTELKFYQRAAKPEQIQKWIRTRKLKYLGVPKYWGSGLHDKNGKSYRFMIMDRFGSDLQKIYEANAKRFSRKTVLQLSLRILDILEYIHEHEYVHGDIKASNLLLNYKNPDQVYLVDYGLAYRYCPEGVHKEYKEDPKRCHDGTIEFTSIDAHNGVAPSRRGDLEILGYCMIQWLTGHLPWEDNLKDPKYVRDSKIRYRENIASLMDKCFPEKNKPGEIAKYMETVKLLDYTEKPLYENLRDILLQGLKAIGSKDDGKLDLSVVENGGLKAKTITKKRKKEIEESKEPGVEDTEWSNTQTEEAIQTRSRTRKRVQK
Type: binding

Row | SMILES | ΔTm at 10 µM [°C]
37 | O=C(NCc1cccc(Cl)c1)Nc1ccc2cc1OCCOCCNc1ccn3ncc-2c3n1 [compound 18] | 0.3
38 | O=C(NCc1ccc(Cl)cc1)Nc1ccc2cc1OCCOCCNc1ccn3ncc-2c3n1 [compound 19] | 0.1
39 | O=C(NCc1ccc(Cl)cc1Cl)Nc1ccc2cc1OCCOCCNc1ccn3ncc-2c3n1 [compound 20] | 0.4

These molecules were tested against T12, SLK (Homo sapiens, UniProt Q9H2G2) (assay: PhosphoSens in vitro activity assay). Settings: ATP 150 μM.
Type: biochemical

Row | SMILES | IC50 [µM]
40 | O=C(NCc1cccc(Cl)c1)Nc1ccc2cc1OCCOCCNc1ccn3ncc-2c3n1 [compound 18] | 5.93 ± 0.76
41 | O=C(NCc1ccc(Cl)cc1)Nc1ccc2cc1OCCOCCNc1ccn3ncc-2c3n1 [compound 19] | 7.16 ± 1.12
42 | O=C(NCc1ccc(Cl)cc1Cl)Nc1ccc2cc1OCCOCCNc1ccn3ncc-2c3n1 [compound 20] | 7.44 ± 1.64

These molecules were tested against T12, SLK (assay: NanoBRET target engagement assay). Settings: HEK293T cells.
Type: cell-based
Parameters: has a greater impact on the full-length protein than on the kinase domains; host or cells: HEK293T (ATCC CRL-3216)

Row | SMILES | EC50 [µM]
43 | O=C(NCc1cccc(Cl)c1)Nc1ccc2cc1OCCOCCNc1ccn3ncc-2c3n1 [compound 18] | > 50
44 | O=C(NCc1ccc(Cl)cc1)Nc1ccc2cc1OCCOCCNc1ccn3ncc-2c3n1 [compound 19] | > 50
45 | O=C(NCc1ccc(Cl)cc1Cl)Nc1ccc2cc1OCCOCCNc1ccn3ncc-2c3n1 [compound 20] | > 50
